Assay results published in EP4678638A1, “NEW E3 UBIQUITIN LIGASE LIGAND, PROTEIN DEGRADATION AGENT AND USE THEREOF” (priority 2023, dated 2024).

Columns and labels:
RSK2 = molecular target: T1, RSK2 (Homo sapiens, UniProt P51812); assay: Western blot degradation of RSK2 (hPBMC); type: cell-based; conditions: Table D8
T1 construct: evaluate the effects of the compounds of the present disclosure on the expression of target proteins in cells; endogenous in cells; host or cells: hPBMC
Description: (§1) Conventional Western blot assay was performed to evaluate the effects of the compounds of the present disclosure on the expression of target proteins in cells.
(§2) (1) Cell Seeding and Protein Harvesting: The selected cells were processed according to the cell seeding procedure and protein harvesting procedure in Table III-2. Table III-2 Cell Seeding and Protein Harvesting Procedures
(§3) (2) To the collected supernatant, 5X SDS sample loading buffer was added, followed by denaturation at 95°C for 5 minutes. The denatured samples were then separated by SDS-PAGE electrophoresis on a polyacrylamide gel. Proteins were transferred to a nitrocellulose membrane (0.45 µm NC membrane), blocked with blocking buffer at room temperature for 1 hour, and subjected to antibody incubation and development procedures according to the antibody manufacturer's instructions (Cell Signaling Technology).
(§4) Half-Maximal Degradation Concentration value (the drug concentration required for degrading proteins by 50%, abbreviated as DC50) reads method: comparing the grayscale values of Western blot bands from drug-treated samples with those from blank DMSO-treated controls, and identifying the drug concentration range at which the grayscale value is half that of the DMSO-treated control bands.
(§5) DC50 values can be calculated using ImageJ software to measure grayscale values of Western blot bands from drug-treated samples. The concentration-response curve is fitted to estimate the drug concentration corresponding to half the grayscale value.
(§6) Target protein remaining (%) refers to the percentage of target protein remaining in hPBMC cells after treatment with protein degrader compounds.
(§7) Calculation method for target protein remaining (%): Use ImageJ software to measure grayscale values of Western blot bands from drug (protein degrader)-treated samples. The grayscale value of drug-treated bands is divided by that of internal control protein bands, and the resulting quotient is normalized to obtain the relative percentage of remaining target protein after protein degrader treatment.
(§8) Target protein degradation rate (%) = 100% - target protein remaining (%).

RSK1 = molecular target: T2, RSK1 (Homo sapiens, UniProt Q15418); assay: Western blot degradation of RSK1 (hPBMC); type: cell-based; conditions: Table D8
T2 construct: evaluate the effects of the compounds of the present disclosure on the expression of target proteins in cells; endogenous in cells; host or cells: hPBMC
Description: as §1, §2, §3, §4, §5, §6, §7, §8

T2 sequence (Q15418 whole entry): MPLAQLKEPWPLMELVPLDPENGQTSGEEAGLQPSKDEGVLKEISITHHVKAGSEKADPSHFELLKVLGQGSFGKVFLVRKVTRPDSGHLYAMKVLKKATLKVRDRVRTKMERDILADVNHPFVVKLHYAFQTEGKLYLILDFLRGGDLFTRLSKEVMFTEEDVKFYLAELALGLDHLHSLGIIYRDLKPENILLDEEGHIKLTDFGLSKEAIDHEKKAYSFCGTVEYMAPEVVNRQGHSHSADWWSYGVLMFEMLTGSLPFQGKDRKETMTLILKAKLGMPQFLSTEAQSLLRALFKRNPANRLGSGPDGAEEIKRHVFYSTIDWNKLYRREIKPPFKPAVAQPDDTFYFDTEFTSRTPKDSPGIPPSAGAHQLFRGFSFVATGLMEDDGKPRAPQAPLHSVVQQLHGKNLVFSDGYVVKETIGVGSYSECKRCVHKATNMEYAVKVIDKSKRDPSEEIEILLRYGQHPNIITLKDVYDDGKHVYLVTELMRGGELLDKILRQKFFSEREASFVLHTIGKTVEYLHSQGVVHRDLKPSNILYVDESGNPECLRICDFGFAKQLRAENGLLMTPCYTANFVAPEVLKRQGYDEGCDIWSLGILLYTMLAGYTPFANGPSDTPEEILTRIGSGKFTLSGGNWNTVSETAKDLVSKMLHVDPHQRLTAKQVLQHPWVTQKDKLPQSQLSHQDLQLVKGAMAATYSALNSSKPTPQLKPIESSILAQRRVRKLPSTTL
T1 sequence (P51812 whole entry): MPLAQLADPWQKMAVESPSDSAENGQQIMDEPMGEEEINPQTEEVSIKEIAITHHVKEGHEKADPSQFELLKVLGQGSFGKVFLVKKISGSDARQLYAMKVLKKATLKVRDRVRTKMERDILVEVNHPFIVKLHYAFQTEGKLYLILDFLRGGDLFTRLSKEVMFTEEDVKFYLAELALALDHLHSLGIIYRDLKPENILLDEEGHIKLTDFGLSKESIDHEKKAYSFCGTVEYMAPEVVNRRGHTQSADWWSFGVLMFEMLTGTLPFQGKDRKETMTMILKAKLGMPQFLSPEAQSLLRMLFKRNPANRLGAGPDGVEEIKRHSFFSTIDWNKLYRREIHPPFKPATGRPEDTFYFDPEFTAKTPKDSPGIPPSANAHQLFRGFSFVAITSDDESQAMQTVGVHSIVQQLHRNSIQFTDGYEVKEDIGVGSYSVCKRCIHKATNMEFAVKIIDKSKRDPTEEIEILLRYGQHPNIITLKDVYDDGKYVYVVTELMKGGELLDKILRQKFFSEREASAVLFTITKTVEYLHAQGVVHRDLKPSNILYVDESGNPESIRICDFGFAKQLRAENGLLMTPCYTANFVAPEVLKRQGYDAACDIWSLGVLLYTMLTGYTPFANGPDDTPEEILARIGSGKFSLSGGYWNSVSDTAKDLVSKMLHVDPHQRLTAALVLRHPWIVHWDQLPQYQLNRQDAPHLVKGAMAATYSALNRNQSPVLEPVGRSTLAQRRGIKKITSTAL

In the case of `C[C@@H]1CNC(=O)c2cc3ccc(C(=O)Nc4cnn(Cc5ccc(N6CCN(Cc7cccc(NC8CCC(=O)NC8=O)c7)CC6)cc5)c4)nc3n21` (stereo partly drawn) [GT-07931, (9R)-N-(1-(4-(4-(3-((2,6-dioxopiperidin-3-yl)amino)benzyl)piperazin-1-yl)benzyl)-1H-pyrazol-4-yl)-9-methyl-6-oxo-6,7,8,9-tetrahydropyrido[3',2':4,5]py rrolo[1,2-a]pyrazine-2-carboxamide], the “Degradation of substrate protein RSK2 (substrate protein remaining %)” value (RSK2) is reported as “A (A is defined as 0% ≤ substrate protein remaining % ≤ 80%)” and the “Degradation of substrate protein RSK1 (substrate protein remaining %)” value (RSK1) is reported as “A (A is defined as 0% ≤ substrate protein remaining % ≤ 80%)”.

For `C[C@@H]1CNC(=O)c2cc3ccc(C(=O)Nc4cnn(Cc5ccc(N6CCN(Cc7cc(C8CCC(=O)NC8=O)cnc7F)CC6)cc5)c4)nc3n21` (stereo partly drawn) [GT-07932, (9R)-N-(1-(4-(4-((5-(2,6-dioxopiperidin-3-yl)-2-fluoropyridin-3-yl)methyl)piperazin-1-yl)benzyl)-1H-pyrazol-4-yl)-9-methyl-6-oxo-6,7,8,9-tetrahydropyrido[3',2':4,5]py rrolo[1,2-a]pyrazine-2-carboxamide], the “Degradation of substrate protein RSK2 (substrate protein remaining %)” value (RSK2) was “B (B is defined as substrate protein remaining % > 80%)” and the “Degradation of substrate protein RSK1 (substrate protein remaining %)” value (RSK1) was “A (A is defined as 0% ≤ substrate protein remaining % ≤ 80%)”.

For `C[C@@H]1CNC(=O)c2cc3ccc(C(=O)Nc4cnn(Cc5ccc(N6CCN(Cc7ncc(C8CCC(=O)NC8=O)cc7F)CC6)cc5)c4)nc3n21` (stereo partly drawn) [GT-07933, (9R)-N-(1-(4-(4-((5-(2,6-dioxopiperidin-3-yl)-3-fluoropyridin-2-yl)methyl)piperazin-1-yl)benzyl)-1H-pyrazol-4-yl)-9-methyl-6-oxo-6,7,8,9-tetrahydropyrido[3',2':4,5]py rrolo[1,2-a]pyrazine-2-carboxamide], the “Degradation of substrate protein RSK2 (substrate protein remaining %)” value (RSK2) was “B (B is defined as substrate protein remaining % > 80%)” and the “Degradation of substrate protein RSK1 (substrate protein remaining %)” value (RSK1) was “A (A is defined as 0% ≤ substrate protein remaining % ≤ 80%)”.

With `C[C@@H]1CNC(=O)c2cc3ccc(C(=O)Nc4cnn(Cc5ccc(N6CCN(Cc7cncc(C8CCC(=O)NC8=O)c7)CC6)cc5)c4)nc3n21` (stereo partly drawn) [GT-07934, (9R)-N-(1-(4-(4-((5-(2,6-dioxopiperidin-3-yl)pyridin-3-yl)methyl)piperazin-1-yl)benzyl)-1H-pyrazol-4-yl)-9-methyl-6-oxo-6,7,8,9-tetrahydropyrido[3',2':4,5]py rrolo[1,2-a]pyrazine-2-carboxamide] the “Degradation of substrate protein RSK2 (substrate protein remaining %)” value (RSK2) was “B (B is defined as substrate protein remaining % > 80%)” and the “Degradation of substrate protein RSK1 (substrate protein remaining %)” value (RSK1) was “A (A is defined as 0% ≤ substrate protein remaining % ≤ 80%)”.

For `C[C@@H]1CNC(=O)c2cc3ccc(C(=O)Nc4cnn(Cc5ccc(N6CCN(Cc7cc(N8CCC(=O)NC8=O)cnc7F)CC6)cc5)c4)nc3n21` [GT-07935, (R)-N-(1-(4-(4-((5-(2,4-dioxotetrahydropyrimidin-1(2H)-yl)-2-fluoropyridin-3-yl)methyl)piperazin-1-yl)benzyl)-1H-pyrazol-4-yl)-9-methyl-6-oxo-6,7,8,9-tetrahydropyrido[3',2':4,5]py rrolo[1,2-a]pyrazine-2-carboxamide], the “Degradation of substrate protein RSK2 (substrate protein remaining %)” value (RSK2) was “B (B is defined as substrate protein remaining % > 80%)” and the “Degradation of substrate protein RSK1 (substrate protein remaining %)” value (RSK1) was “A (A is defined as 0% ≤ substrate protein remaining % ≤ 80%)”.

`C[C@@H]1CNC(=O)c2cc3ccc(C(=O)Nc4cnn(Cc5ccc(N6CCN(Cc7cnc(N8CCC(=O)NC8=O)cn7)CC6)cc5)c4)nc3n21` [GT-07936, (R)-N-(1-(4-(4-((5-(2,4-dioxotetrahydropyrimidin-1(2H)-yl)pyrazin-2-yl)methyl)piperazin-1-yl)benzyl)-1H-pyrazol-4-yl)-9-methyl-6-oxo-6,7,8,9-tetrahydropyrido[3',2':4,5]py rrolo[1,2-a]pyrazine-2-carboxamide] was tested, and the “Degradation of substrate protein RSK2 (substrate protein remaining %)” value (RSK2) was “B (B is defined as substrate protein remaining % > 80%)” and the “Degradation of substrate protein RSK1 (substrate protein remaining %)” value (RSK1) was “A (A is defined as 0% ≤ substrate protein remaining % ≤ 80%)”.

For `C[C@@H]1CNC(=O)c2cc3ccc(C(=O)Nc4cnn(Cc5ccc(N6CCC(N(C)Cc7ccc(C8CCC(=O)NC8=O)cc7)CC6)cc5)c4)nc3n21` (stereo partly drawn) [GT-07937, (9R)-N-(1-(4-(4-((4-(2,6-dioxopiperidin-3-yl)benzyl)(methyl)amino)piperidin-1-yl)benzyl)-1H-pyrazol-4-yl)-9-methyl-6-oxo-6,7,8,9-tetrahydropyrido[3',2':4,5]py rrolo[1,2-a]pyrazine-2-carboxamide], the “Degradation of substrate protein RSK2 (substrate protein remaining %)” value (RSK2) was “B (B is defined as substrate protein remaining % > 80%)” and the “Degradation of substrate protein RSK1 (substrate protein remaining %)” value (RSK1) was “A (A is defined as 0% ≤ substrate protein remaining % ≤ 80%)”.

With `C[C@@H]1CNC(=O)c2cc3ccc(C(=O)Nc4cnn(Cc5ccc(N6CCC(N(C)Cc7ccc(N8CCC(=O)NC8=O)cc7)CC6)cc5)c4)nc3n21` [GT-07938, (R)-N-(1-(4-(4-((4-(2,4-dioxotetrahydropyrimidin-1(2H)-yl)benzyl)(methyl)amino)piperidin-1-yl)benzyl)-1H-pyrazol-4-yl)-9-methyl-6-oxo-6,7,8,9-tetrahydropyrido[3',2':4,5]py rrolo[1,2-a]pyrazine-2-carboxamide] the “Degradation of substrate protein RSK2 (substrate protein remaining %)” value (RSK2) was “B (B is defined as substrate protein remaining % > 80%)” and the “Degradation of substrate protein RSK1 (substrate protein remaining %)” value (RSK1) was “A (A is defined as 0% ≤ substrate protein remaining % ≤ 80%)”.

For `C[C@@H]1CNC(=O)c2cc3ccc(C(=O)Nc4cnn(Cc5ccc(N6CCC(N(C)Cc7cccc(N8CCC(=O)NC8=O)c7)CC6)cc5)c4)nc3n21` [GT-07939, (R)-N-(1-(4-(4-((3-(2,4-dioxotetrahydropyrimidin-1(2H)-yl)benzyl)(methyl)amino)piperidin-1-yl)benzyl)-1H-pyrazol-4-yl)-9-methyl-6-oxo-6,7,8,9-tetrahydropyrido[3',2':4,5]py rrolo[1,2-a]pyrazine-2-carboxamide], the “Degradation of substrate protein RSK2 (substrate protein remaining %)” value (RSK2) was “B (B is defined as substrate protein remaining % > 80%)” and the “Degradation of substrate protein RSK1 (substrate protein remaining %)” value (RSK1) was “A (A is defined as 0% ≤ substrate protein remaining % ≤ 80%)”.

`C[C@@H]1CNC(=O)c2cc3ccc(C(=O)Nc4cnn(Cc5ccc(N6CCC(N(C)Cc7ccc(N8CCC(=O)NC8=O)cn7)CC6)cc5)c4)nc3n21` [GT-07940, (R)-N-(1-(4-(4-(((5-(2,4-dioxotetrahydropyrimidin-1(2H)-yl)pyridin-2-yl)methyl)(methyl)amino)piperidin-1-yl)benzyl)-1H-pyrazol-4-yl)-9-methyl-6-oxo-6,7,8,9-tetrahydropyrido[3',2':4,5]py rrolo[1,2-a]pyrazine-2-carboxamide] was tested, and the “Degradation of substrate protein RSK2 (substrate protein remaining %)” value (RSK2) was “A (A is defined as 0% ≤ substrate protein remaining % ≤ 80%)” and the “Degradation of substrate protein RSK1 (substrate protein remaining %)” value (RSK1) was “A (A is defined as 0% ≤ substrate protein remaining % ≤ 80%)”.

For `C[C@@H]1CNCc2cc3ccc(C(=O)Nc4cnn(Cc5ccc(N6CCC(N(C)Cc7ccc(N8CCC(=O)NC8=O)nc7)CC6)cc5)c4)nc3n21` [GT-07941, (R)-N-(1-(4-(4-(((6-(2,4-dioxotetrahydropyrimidin-1(2H)-yl)pyridin-3-yl)methyl)(methyl)amino)piperidin-1-yl)benzyl)-1H-pyrazol-4-yl)-9-methyl-6,7,8,9-tetrahydropyrido[3',2':4,5]py rrolo[1,2-a]pyrazine-2-carboxamide], the “Degradation of substrate protein RSK2 (substrate protein remaining %)” value (RSK2) was “A (A is defined as 0% ≤ substrate protein remaining % ≤ 80%)” and the “Degradation of substrate protein RSK1 (substrate protein remaining %)” value (RSK1) was “A (A is defined as 0% ≤ substrate protein remaining % ≤ 80%)”.

With `C[C@@H]1CNC(=O)c2cc3ccc(C(=O)Nc4cnn(Cc5ccc(N6CCC(N(C)Cc7cccc(NC8CCC(=O)NC8=O)c7)CC6)cc5)c4)nc3n21` (stereo partly drawn) [GT-07942, (9R)-N-(1-(4-(4-((3-((2,6-dioxopiperidin-3-yl)amino)benzyl)(methyl)amino)piperidin-1-yl)benzyl)-1H-pyrazol-4-yl)-9-methyl-6-oxo-6,7,8,9-tetrahydropyrido[3',2':4,5]py rrolo[1,2-a]pyrazine-2-carboxamide] the “Degradation of substrate protein RSK2 (substrate protein remaining %)” value (RSK2) was “A (A is defined as 0% ≤ substrate protein remaining % ≤ 80%)” and the “Degradation of substrate protein RSK1 (substrate protein remaining %)” value (RSK1) was “A (A is defined as 0% ≤ substrate protein remaining % ≤ 80%)”.

With `C[C@@H]1CNC(=O)c2cc3ccc(C(=O)Nc4cnn(Cc5ccc(N6CCC(N(C)Cc7cc(N8CCC(=O)NC8=O)ncc7F)CC6)cc5)c4)nc3n21` [GT-07943, (R)-N-(1-(4-(4-(((2-(2,4-dioxotetrahydropyrimidin-1(2H)-yl)-5-fluoropyridin-4-yl)methyl)(methyl)amino)piperidin-1-yl)benzyl)-1H-pyrazol-4-yl)-9-methyl-6-oxo-6,7,8,9-tetrahydropyrido[3',2':4,5]py rrolo[1,2-a]pyrazine-2-carboxamide] the “Degradation of substrate protein RSK2 (substrate protein remaining %)” value (RSK2) was “A (A is defined as 0% ≤ substrate protein remaining % ≤ 80%)” and the “Degradation of substrate protein RSK1 (substrate protein remaining %)” value (RSK1) was “A (A is defined as 0% ≤ substrate protein remaining % ≤ 80%)”.
